{"source": "ChEMBL document CHEMBL4130433", "about": "“Acridone-pyrimidine hybrids- design, synthesis, cytotoxicity studies in resistant and sensitive cancer cells and molecular docking studies” (Eur J Med Chem, 2017)", "key": {"Rattus norvegicus [1]": {"test_system": "Rattus norvegicus", "assay": "Toxicity in overnight fasted albino Wistar rat assessed as body weight at 300 mg/kg, po administered as single dose followed by fasting for 3 hrs measured on day 2 post dose (reference value: 165 +/- 12 g)", "assay_type": "organism-based", "details": "in vivo"}, "Rattus norvegicus [2]": {"test_system": "Rattus norvegicus", "assay": "Toxicity in overnight fasted albino Wistar rat assessed as body weight at 5000 mg/kg, po administered as single dose followed by fasting for 3 hrs measured on day 12 post dose (reference value: 186 +/- 13 g)", "assay_type": "organism-based", "details": "in vivo"}, "Rattus norvegicus [3]": {"test_system": "Rattus norvegicus", "assay": "Toxicity in overnight fasted albino Wistar rat assessed as body weight at 2000 mg/kg, po administered as single dose followed by fasting for 3 hrs measured on day 5 post dose (reference value: 172 +/- 14 g)", "assay_type": "organism-based", "details": "in vivo"}, "Rattus norvegicus [4]": {"test_system": "Rattus norvegicus", "assay": "Toxicity in overnight fasted albino Wistar rat assessed as body weight at 300 mg/kg, po administered as single dose followed by fasting for 3 hrs measured on day 6 post dose (reference value: 173 +/- 12 g)", "assay_type": "organism-based", "details": "in vivo"}, "Rattus norvegicus [5]": {"test_system": "Rattus norvegicus", "assay": "Toxicity in overnight fasted albino Wistar rat assessed as body weight at 300 mg/kg, po administered as single dose followed by fasting for 3 hrs measured on day 5 post dose (reference value: 172 +/- 14 g)", "assay_type": "organism-based", "details": "in vivo"}, "Rattus norvegicus [6]": {"test_system": "Rattus norvegicus", "assay": "Toxicity in overnight fasted albino Wistar rat assessed as body weight at 300 mg/kg, po administered as single dose followed by fasting for 3 hrs measured on day 7 post dose (reference value: 175 +/- 10 g)", "assay_type": "organism-based", "details": "in vivo"}, "Rattus norvegicus [7]": {"test_system": "Rattus norvegicus", "assay": "Toxicity in overnight fasted albino Wistar rat assessed as body weight at 2000 mg/kg, po administered as single dose followed by fasting for 3 hrs measured on day 6 post dose (reference value: 173 +/- 12 g)", "assay_type": "organism-based", "details": "in vivo"}, "[8]": {"assay": "Cytotoxicity against African green monkey Vero cells after 72 hrs by MTT assay", "assay_type": "cell-based", "details": "chlorocebus sabaeus"}, "Rattus norvegicus [9]": {"test_system": "Rattus norvegicus", "assay": "Toxicity in overnight fasted albino Wistar rat assessed as body weight at 2000 mg/kg, po administered as single dose followed by fasting for 3 hrs measured on day 7 post dose (reference value: 175 +/- 10 g)", "assay_type": "organism-based", "details": "in vivo"}, "Rattus norvegicus [10]": {"test_system": "Rattus norvegicus", "assay": "Toxicity in overnight fasted albino Wistar rat assessed as body weight at 300 mg/kg, po administered as single dose followed by fasting for 3 hrs measured on day 8 post dose (reference value: 177 +/- 8 g)", "assay_type": "organism-based", "details": "in vivo"}, "SW1573": {"test_system": "SW1573", "assay": "Antiproliferative activity against human SW1573 cells after 72 hrs by MTT assay", "assay_type": "functional, cell-based", "details": "SW1573, 72 h"}, "Rattus norvegicus [11]": {"test_system": "Rattus norvegicus", "assay": "Toxicity in overnight fasted albino Wistar rat assessed as body weight at 300 mg/kg, po administered as single dose followed by fasting for 3 hrs measured on day 12 post dose (reference value: 186 +/- 13 g)", "assay_type": "organism-based", "details": "in vivo"}, "A549": {"test_system": "A549", "assay": "cells", "details": "Homo sapiens, A549, 72 h", "description": "Antiproliferative activity against human A549 cells after 72 hrs by MTT assay"}, "Rattus norvegicus [12]": {"test_system": "Rattus norvegicus", "assay": "Toxicity in overnight fasted albino Wistar rat assessed as body weight at 5000 mg/kg, po administered as single dose followed by fasting for 3 hrs measured on day 9 post dose (reference value: 180 +/- 12 g)", "assay_type": "organism-based", "details": "in vivo"}, "Rattus norvegicus [13]": {"test_system": "Rattus norvegicus", "assay": "Toxicity in overnight fasted albino Wistar rat assessed as body weight at 5000 mg/kg, po administered as single dose followed by fasting for 3 hrs measured on day 14 post dose (reference value: 191 +/- 18 g)", "assay_type": "organism-based", "details": "in vivo"}, "Rattus norvegicus [14]": {"test_system": "Rattus norvegicus", "assay": "Toxicity in overnight fasted albino Wistar rat assessed as body weight at 300 mg/kg, po administered as single dose followed by fasting for 3 hrs measured on day 11 post dose (reference value: 185 +/- 8 g)", "assay_type": "organism-based", "details": "in vivo"}, "2008": {"test_system": "2008", "assay": "Antiproliferative activity against human 2008 cells after 72 hrs by MTT assay", "assay_type": "functional, cell-based", "details": "Homo sapiens, 2008, 72 h"}, "Rattus norvegicus [15]": {"test_system": "Rattus norvegicus", "assay": "Toxicity in overnight fasted albino Wistar rat assessed as body weight at 2000 mg/kg, po administered as single dose followed by fasting for 3 hrs measured on day 11 post dose (reference value: 185 +/- 8 g)", "assay_type": "organism-based", "details": "in vivo"}, "Rattus norvegicus [16]": {"test_system": "Rattus norvegicus", "assay": "Toxicity in overnight fasted albino Wistar rat assessed as body weight at 2000 mg/kg, po administered as single dose followed by fasting for 3 hrs measured on day 10 post dose (reference value: 182 +/- 15 g)", "assay_type": "organism-based", "details": "in vivo"}, "Rattus norvegicus [17]": {"test_system": "Rattus norvegicus", "assay": "Toxicity in overnight fasted albino Wistar rat assessed as body weight at 5000 mg/kg, po administered as single dose followed by fasting for 3 hrs measured on day 3 post dose (reference value: 166 +/- 10 g)", "assay_type": "organism-based", "details": "in vivo"}, "Rattus norvegicus [18]": {"test_system": "Rattus norvegicus", "assay": "Toxicity in overnight fasted albino Wistar rat assessed as body weight at 2000 mg/kg, po administered as single dose followed by fasting for 3 hrs measured on day 1 post dose (reference value: 162 +/- 8 g)", "assay_type": "organism-based", "details": "in vivo"}, "Rattus norvegicus [19]": {"test_system": "Rattus norvegicus", "assay": "Toxicity in overnight fasted albino Wistar rat assessed as body weight at 2000 mg/kg, po administered as single dose followed by fasting for 3 hrs measured on day 12 post dose (reference value: 186 +/- 13 g)", "assay_type": "organism-based", "details": "in vivo"}, "[20]": {"assay": "Antiproliferative activity against human MCF7/DX cells after 72 hrs by MTT assay", "assay_type": "functional, cell-based"}, "Rattus norvegicus [21]": {"test_system": "Rattus norvegicus", "assay": "Toxicity in overnight fasted albino Wistar rat assessed as body weight at 5000 mg/kg, po administered as single dose followed by fasting for 3 hrs measured on day 13 post dose (reference value: 188 +/- 16 g)", "assay_type": "organism-based", "details": "in vivo"}}, "data": [{"molecule": "COC(=O)c1c(C)nc(NNC(=O)c2cccc3c(=O)c4ccccc4[nH]c23)nc1-c1ccc(OC)c(OC)c1", "values": [{"measurement": "Activity", "setting": "Rattus norvegicus [1]", "result": 183, "unit": "g"}, {"measurement": "Activity", "setting": "Rattus norvegicus [2]", "result": 221, "unit": "g"}, {"measurement": "Activity", "setting": "Rattus norvegicus [3]", "result": 190, "unit": "g"}, {"measurement": "Activity", "setting": "Rattus norvegicus [4]", "result": 190, "unit": "g"}, {"measurement": "Activity", "setting": "Rattus norvegicus [5]", "result": 188, "unit": "g"}, {"measurement": "Activity", "setting": "Rattus norvegicus [6]", "result": 191, "unit": "g"}, {"measurement": "Activity", "setting": "Rattus norvegicus [7]", "result": 194, "unit": "g"}, {"measurement": "CC50 at 72 h", "setting": "[8]", "result": 85.7, "unit": "µM"}, {"measurement": "Activity", "setting": "Rattus norvegicus [9]", "result": 195, "unit": "g"}, {"measurement": "Activity", "setting": "Rattus norvegicus [10]", "result": 192, "unit": "g"}, {"measurement": "IC50", "setting": "SW1573", "result": 4, "unit": "µM"}, {"measurement": "Activity", "setting": "Rattus norvegicus [11]", "result": 199, "unit": "g"}, {"measurement": "IC50", "setting": "A549", "result": 29.1, "unit": "µM"}, {"measurement": "Activity", "setting": "Rattus norvegicus [12]", "result": 212, "unit": "g"}, {"measurement": "Activity", "setting": "Rattus norvegicus [13]", "result": 228, "unit": "g"}, {"measurement": "Activity", "setting": "Rattus norvegicus [14]", "result": 196, "unit": "g"}, {"measurement": "IC50", "setting": "2008", "result": 26, "unit": "µM"}, {"measurement": "Activity", "setting": "Rattus norvegicus [15]", "result": 205, "unit": "g"}, {"measurement": "Activity", "setting": "Rattus norvegicus [16]", "result": 202, "unit": "g"}, {"measurement": "Activity", "setting": "Rattus norvegicus [17]", "result": 192, "unit": "g"}, {"measurement": "Activity", "setting": "Rattus norvegicus [18]", "result": 183, "unit": "g"}, {"measurement": "Activity", "setting": "Rattus norvegicus [19]", "result": 206, "unit": "g"}, {"measurement": "IC50", "setting": "[20]", "result": 78, "unit": "µM"}, {"measurement": "Activity", "setting": "Rattus norvegicus [21]", "result": 224, "unit": "g"}]}]}
